The term IC50 denotes the concentration that inhibits the measured activity by half. A lower IC50 goes with inhibition by little substance. As a reminder, the inhibition is the change of the read-out against control, counted positive when it falls.

This is an account of results in patent US20240182445A1 (ONO PHARMACEUTICAL CO., LTD., priority 2019, published 2024).

The first test concerns the target T1, human TREK-1 (Homo sapiens, UniProt O95069).
T1 construct: expressed in transfected cells
T1 sequence (O95069 1-426): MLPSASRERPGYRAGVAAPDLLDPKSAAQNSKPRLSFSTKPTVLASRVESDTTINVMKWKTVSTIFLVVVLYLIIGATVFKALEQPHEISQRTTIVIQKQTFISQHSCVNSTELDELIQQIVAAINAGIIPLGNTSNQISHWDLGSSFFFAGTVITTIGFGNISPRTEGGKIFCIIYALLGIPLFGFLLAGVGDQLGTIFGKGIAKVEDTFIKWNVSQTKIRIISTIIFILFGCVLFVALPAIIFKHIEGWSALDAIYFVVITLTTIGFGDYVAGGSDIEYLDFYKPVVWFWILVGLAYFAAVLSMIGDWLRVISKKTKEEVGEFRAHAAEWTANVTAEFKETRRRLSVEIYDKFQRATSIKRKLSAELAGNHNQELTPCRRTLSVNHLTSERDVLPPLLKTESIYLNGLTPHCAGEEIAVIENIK
The test is described as follows: TREK-1 Thallium (Tl+) flux assay, Method 1. Format: cell-based. The settings on record: TREK-1 Thallium (Tl+) flux assay, Method 1. On the procedure:
The term “thallium flux assay” herein refers to a fluorescence-based assay used to monitor the activity of TREK channels. Thallium is a congener of potassium that readily fluxes through the pore of TREK channels. Thallium flux is measured using a commercially available, thallium-sensitive fluorescent dye called Thallos. The detail method is described below.
CHO-K1 cells stably expressing human TREK-1 were plated in 384-well plates, cultured overnight, loaded with Thallos dye the following day. Test compounds or control compound (tert-butyl (3-((4-(benzyloxy)-2-methylphenyl)carbamoyl)-4-chlorophenyl)carbamate) or 0.3% DMSO (vehicle control) which were prepared on separate plates were added to the cell plates and incubated for 10 min, and then the cells were treated with thallium stimulus buffer to initiate thallium flux. To measure the efficacy and potency of test compounds, the change in fluorescence intensity (ΔRatio) and % inhibition were calculated using the following equations:
ΔRatio=(fluorescence intensity at 25 seconds after thallium addition)/(average of fluorescent intensity before thallium addition)
Take `Cc1cc(-c2cnn(-c3ccccc3F)c2)cnc1NC(=O)c1c(Cl)cnn1C1CCN(C(=O)OC(C)(C)C)CC1` [Compound 436, tert-butyl 4-(4-chloro-5-((5-(1-(2-fluorophenyl)-1H-pyrazol-4-yl)-3-methylpyridin-2-yl)carbamoyl)-1H-pyrazol-1-yl)piperidine-1-carboxylate]: it took 9.3 µM to reach half-maximal inhibition (IC50).
On the same count and under the same terms, the result for `CCc1cc(-c2cnc(NC(=O)c3c(Cl)cnn3C3CCN(C(=O)OC(C)(C)C)CC3)c(C)c2)ccc1OC` [Compound 408, tert-butyl 4-(4-chloro-5-((5-(3-ethyl-4-methoxyphenyl)-3-methylpyridin-2-yl)carbamoyl)-1H-pyrazol-1-yl)piperidine-1-carboxylate] reads 2.67 µM; that for `CCCCOc1ccc(-c2cnc(NC(=O)c3c(Cl)cnn3C3CCN(C(C)=O)CC3)c(C)c2)cc1` [Compound 416, 1-(1-acetylpiperidin-4-yl)-N-(5-(4-butoxyphenyl)-3-methylpyridin-2-yl)-4-chloro-1H-pyrazole-5-carboxamide], 4.07 µM.

The same test, now with this note: TREK-1 Thallium (Tl+) flux assay; no *^12 (Method 2) mark on these rows.
For “tert-butyl 4-(4-chloro-5-((3-fluoro-5-(phenylethynyl)pyridin-2-yl)carbamoyl)-1H-pyrazol-1-yl)-2-methylpiperidine-1-caboxylate [Compound 324]”, the IC50 was 0.64 µM.
As for `O=C(Nc1ncc(C#Cc2ccccc2)cc1F)c1c(Cl)cnn1CC1CCCO1` (centres unmarked) [Compound 366, 4-chloro-N-(3-fluoro-5-(phenylethynyl)pyridin-2-yl)-1-((tetrahydrofuran-2-yl)methyl)-1H-pyrazole-5-carboxamide], the IC50 worked out at 0.93 µM.
The same measure, in the same setting: the result for `CC(C)(C)OC(=O)N1CCC(n2ncc(Cl)c2C(=O)Nc2ncc(C#Cc3cccs3)cc2F)CC1` [Compound 335, tert-butyl 4-(4-chloro-5-((3-fluoro-5-(thiophen-2-ylethynyl)pyridin-2-yl)carbamoyl)-1H-pyrazol-1-yl)piperidine-1-carboxylate] reads 0.7 µM; that for `Cc1cc(C#Cc2ccccc2)cnc1NC(=O)c1c(Cl)cnn1CC1(C#N)CC1` [Compound 267, 4-chloro-1-((1-cyanocyclopropyl)methyl)-N-(3-methyl-5-(phenylethynyl)pyridin-2-yl)-1H-pyrazole-5-carboxamide], 0.45 µM; that for `Cc1cc(C#Cc2ccccc2)cnc1NC(=O)c1c(Cl)cnn1C1CCCOC1` (centres unmarked) [Compound 327, 4-chloro-N-(3-methyl-5-(phenylethynyl)pyridin-2-yl)-1-(tetrahydro-2H-pyran-3-yl)-1H-pyrazole-5-carboxamide], 0.65 µM.
With `Cc1cc(C#Cc2ccc(F)cc2)cnc1NC(=O)c1c(Cl)cnn1C[C@@H]1CCN(C(=O)C(C)C)C[C@H]1F` [Compound 293, 4-chloro-1-(((3S,4S)-3-fluoro-1-isobutyrylpiperidin-4-yl)methyl)-N-(5-((4-fluorophenyl)ethynyl)-3-methylpyridin-2-yl)-1H-pyrazole-5-carboxamide], inhibition was half-maximal at 0.52 µM (IC50).
In the case of `CC(C)(C)OC(=O)N[C@H]1CC[C@@H](n2ncc(Cl)c2C(=O)Nc2ncc(C#Cc3ccccc3)cc2F)CC1` [Compound 294, tert-butyl (cis-4-(4-chloro-5-((3-fluoro-5-(phenylethynyl)pyridin-2-yl)carbamoyl)-1H-pyrazol-1-yl)cyclohexyl)carbamate], the half-maximal inhibitory concentration (IC50) amounted to 0.53 µM.
With `Cc1cc(C#Cc2ccccc2)cnc1NC(=O)c1c(Cl)cnn1C1CCC(C#N)C1` (centres unmarked) [Compound 289, 4-chloro-1-(3-cyanocyclopentyl)-N-(3-methyl-5-(phenylethynyl)pyridin-2-yl)-1H-pyrazole-5-carboxamide], 0.51 µM corresponded to half-maximal inhibition (IC50).
As to `Cc1cc(C#Cc2cccc(F)c2)cnc1NC(=O)c1c(Cl)cnn1[C@H]1C[C@@H]2CN(C(=O)C(C)C)C[C@@H]2C1` [Compound 349, 4-chloro-N-{5-[(3-fluorophenyl)ethynyl]-3-methylpyridin-2-yl}-1-[(3aR,5s,6aS)-2-(2-methylpropanoyl)octahydrocyclopenta [c]pyrrol-5-yl]-1H-pyrazole-5-carboxamide], the IC50 is 0.81 µM.
As to `O=C(Nc1ncc(C#Cc2cccs2)cc1F)c1c(Cl)cnn1CCC1CCN(C(=O)C2COCCO2)CC1` (centres unmarked) [Compound 206, 1-(2-(1-(1,4-dioxane-2-carbonyl)piperidin-4-yl)ethyl)-4-chloro-N-(3-fluoro-5-(thiophen-2-ylethynyl)pyridin-2-yl)-1H-pyrazole-5-carboxamide], the IC50 was 0.31 µM.

The test is the same for the next values; noted with them: TREK-1 Thallium (Tl+) flux assay; values without footnote *12 are Method 1.
Molecule `CCC(=O)N1CCC(n2ncc(Cl)c2C(=O)Nc2ncc(C#Cc3ccc(F)cc3)cc2C)CC1` [Compound 66, 4-chloro-N-(5-((4-fluorophenyl)ethynyl)-3-methylpyridin-2-yl)-1-(1-propionylpiperidin-4-yl)-1H-pyrazole-5-carboxamide] had a half-maximal inhibitory concentration (IC50) of 0.15 µM.
The molecule `Cc1cc(C#Cc2ccccc2)cnc1NC(=O)c1c(Cl)cnn1CCCC#N` [Compound 167, 4-chloro-1-(3-cyanopropyl)-N-(3-methyl-5-(phenylethynyl)pyridin-2-yl)-1H-pyrazole-5-carboxamide] came in with a half-maximal inhibitory concentration (IC50) of 0.27 µM.
`Cc1cc(C#Cc2ccccc2)cnc1NC(=O)c1c(Cl)cnn1C[C@@H]1CCN(C(=O)C(C)C)C[C@@H]1F` [Compound 118, 4-chloro-1-(((3R,4S)-3-fluoro-1-isobutyrylpiperidin-4-yl)methyl)-N-(3-methyl-5-(phenylethynyl)pyridin-2-yl)-1H-pyrazole-5-carboxamide] gave an IC50 of 0.2 µM.
With `Cc1cc(C#Cc2ccccc2)cnc1NC(=O)c1c(Cl)cnn1CC1(C)CCN(C(=O)C2CC2C)CC1` (centres unmarked) [Compound 184, 4-chloro-1-((4-methyl-1-(2-methylcyclopropane-1-carbonyl)piperidin-4-yl)methyl)-N-(3-methyl-5-(phenylethynyl)pyridin-2-yl)-1H-pyrazole-5-carboxamide], the IC50 amounted to 0.28 µM.
The molecule `Cc1cc(C#Cc2ccccc2)cc(F)c1NC(=O)c1c(Cl)cnn1C1CC(C#N)C1` (centres unmarked) [Compound 194, 4-chloro-1-(3-cyanocyclobutyl)-N-(2-fluoro-6-methyl-4-(phenylethynyl)phenyl)-1H-pyrazole-5-carboxamide] yielded a concentration for half-maximal inhibition (IC50) of 0.3 µM. The IC50 values of the last two molecules are within 1.5-fold of each other.
As for `CC1CC1C(=O)N1CCC(n2ncc(Cl)c2C(=O)Nc2ncc(C#Cc3ccccc3)cc2F)CC1` (centres unmarked) [Compound 91, 4-chloro-N-(3-fluoro-5-(phenylethynyl)pyridin-2-yl)-1-(1-(2-methylcyclopropane-1-carbonyl)piperidin-4-yl)-1H-pyrazole-5-carboxamide], the IC50 is 0.18 µM.
Regarding `Cc1cc(C#Cc2cccs2)cnc1NC(=O)c1c(Cl)cnn1C1CCN(C(=O)C2CC2)CC1` [Compound 63, 4-chloro-1-(1-(cyclopropanecarbonyl)piperidin-4-yl)-N-(3-methyl-5-(thiophen-2-ylethynyl)pyridin-2-yl)-1H-pyrazole-5-carboxamide], inhibition was half-maximal at 0.15 µM (IC50).
Molecule `CC(=O)N1CCC(CCn2ncc(Cl)c2C(=O)Nc2ncc(C#Cc3ccccc3)cc2C)CC1` [Compound 153, 1-(2-(1-acetylpiperidin-4-yl)ethyl)-4-chloro-N-(3-methyl-5-(phenylethynyl)pyridin-2-yl)-1H-pyrazole-5-carboxamide] displayed an IC50 of 0.24 µM.
In turn, `Cc1cc(C#Cc2cccs2)cnc1NC(=O)c1c(Cl)cnn1C1CCN(C(=O)C(C)C)CC1` [Compound 111, 4-chloro-1-(1-isobutyrylpiperidin-4-yl)-N-(3-methyl-5-(thiophen-2-ylethynyl)pyridin-2-yl)-1H-pyrazole-5-carboxamide] displayed an IC50 of 0.2 µM.
`CC(=O)N1CCC(n2ncc(Cl)c2C(=O)Nc2ncc(C#Cc3cccs3)cc2F)CC1` [Compound 18, 1-(1-acetylpiperidin-4-yl)-4-chloro-N-(3-fluoro-5-(thiophen-2-ylethynyl)pyridin-2-yl)-1H-pyrazole-5-carboxamide] showed an IC50 of 0.06 µM.
In turn, `Cc1cc(C#Cc2ccc(F)cc2)cnc1NC(=O)c1c(Cl)cnn1[C@H]1CC[C@@H](NC(=O)C2COCCO2)CC1` (stereo partly drawn) [Compound 38, 1-(cis-4-(1,4-dioxane-2-carboxamido)cyclohexyl)-4-chloro-N-(5-((4-fluorophenyl)ethynyl)-3-methylpyridin-2-yl)-1H-pyrazole-5-carboxamide] showed a half-maximal inhibitory concentration (IC50) of 0.12 µM.
`N#CC1(Cn2ncc(Cl)c2C(=O)Nc2ncc(C#Cc3ccccc3)cc2F)CC1` [Compound 141, 4-chloro-1-((1-cyanocyclopropyl)methyl)-N-(3-fluoro-5-(phenylethynyl)pyridin-2-yl)-1H-pyrazole-5-carboxamide] gave an IC50 of 0.23 µM.

Still in this test, the particulars now being: read-out: Tl^+ Assay % inhibition at 30 uM (Minus value indicates activation of TREK-1); at 30 uM; CHO-K1 cells stably expressing human TREK-1; minus = activation.
For the molecule `CC(=O)N1CCC(CCn2cc(Cl)c(C(=O)Nc3ncc(C#Cc4cccc(F)c4)cc3C)n2)CC1` [Compound 439, 1-(2-(1-acetylpiperidin-4-yl)ethyl)-4-chloro-N-(5-((3-fluorophenyl)ethynyl)-3-methylpyridin-2-yl)-1H-pyrazol-3-carboxamide], the inhibition at 30 µM was -163%.
